The numbers were not newly measured in patent US20210095260A1, “BI- OR MULTI-DIFFERENTIATED ORGANOID” (IMBA - INSTITUT FÜR MOLEKULARE BIOTECHNOLOGIE GMBH, priority 2017, published 2021), which cites them from elsewhere.

The subject of this series is hPSCs. Particulars: inhibition of SHH activity; cited from earlier work.

On to `CC1=C2C[C@H]3[C@@H](CC=C4C[C@@H](O)CC[C@@]43C)[C@@H]2CC[C@]12O[C@@H]1C[C@H](C)CN[C@H]1[C@H]2C` [CycA, cyclopamine A], for which the dorsal forebrain identity entry is “can enhance dorsal forebrain identity”.
